This note sets out measurements from patent publication EP2508186A1, “Phenoxazinones or phenothiazones as inhibitors of amyloid formation” (Max-Delbrück-Centrum für Molekulare Medizin, priority 2011, dated 2012).

Read-outs that look alike come from different tables or passages of the source.

Assay [1] deals with T1, Aβ42 (Homo sapiens, UniProt P05067).
T1 construct: the amyloid-β 1-42 (Aβ42) peptide
Put plainly: Transmission electron microscopy (TEM/AFM) of Aβ42 aggregate species. It counts as biochemical. As to the method:
2.1.1. Protein aggregation. For aggregation reactions, Aβ42 stock solution (1 mM in DMSO) was diluted in phosphate buffer (100 mM sodium phosphate, 10 mM NaCl, pH 7.4) to 15 µM and incubated in 1.5 ml Eppendorf tubes (Eppendorf, Germany) at 37°C. Generation of soluble Aβ42 oligomers was performed as described (Lambert, 1998). Aβ42 DMSO stock solutions were diluted in Ham's F12 medium without phenol red (Biosource) at a final peptide concentration of 100 µM, with or without test compounds. After brief vortexing, samples were incubated at 4-6°C for 24 h. Alternatively, Aβ42 oligomers were prepared as described in (Ma, 2006) by diluting DMSO stock solution to a final Aβ42 concentration of 110 µM in 10 mM HEPES buffer pH 7.4. Samples were incubated in a glass vial with a micro stir bar at 37°C for 24 h and subsequently centrifuged (Beckman Coulter Microfuge R, rotor F241.5P) at 13,000 rpm.
2.2.2. 04 promotes the assembly of seeding-competent, β-sheet-rich Aβ42 fibrils. To examine the morphology of 04-generated protein aggregates, time course experiments were carried out and evaluated by transmission electron microscopy (TEM). After an incubation period of 4 d, worm-like Aβ42 protofibrils (Walsh, 1999) with a length of ∼30-150 nm and a diameter of -5 nm were predominantly detected in untreated aggregation reactions (Fig. 2c). […] A similar result was obtained after an incubation period of 7 d (Fig. 2c). […] At the same time, the number of oligomeric structures was reduced in 04-treated aggregation reactions (p < 1*10^-4).
We then investigated whether 04 treatment influences the assembly of small Aβ42 oligomers, which are preferentially formed at low temperature in cell-free assays (Lambert, 1998). Aβ42 monomers were incubated for 24 h at 6-8°C in the presence and absence of 04 and formation of oligomers was analyzed by TEM. In agreement with previously published data soluble fractions of untreated aggregation reactions contained large numbers of predominantly spherical Aβ42 oligomers with a diameter of 5-15 nm (Fig. 3e). […] In the presence of 04 a relatively large number of long amyloid fibrils was detected in insoluble fractions, while such structures were not observed in the absence of the chemical compound. However, in pellet fractions of untreated aggregation reactions smaller protofibrillar aggregate species were detected by TEM (Fig. 3e).
Analysis of amyloid fibrils by TEM and AFM also support the antibody binding results. While untreated Aβ42 aggregates in agreement with previously published studies (Bieschke, 2005) are straight fibrils and show a plain, highly regular surface, such a fibrillar morphology was not detected with 04 treated samples (Fig. 7e and f).

Assay [2] addresses T1, Aβ42. Put plainly: Circular dichroism (CD) spectroscopy of Aβ42 β-sheet formation. In kind it is biochemical. As to conditions: Aβ42 15 µM, phosphate buffer. An excerpt: Therefore, we investigated whether 04 treatment influences the structure of Aβ42 amyloid fibrils using circular dichroism (CD) spectroscopy (Ehrnhoefer, 2008).
Next, the conversion of unstructured Aβ42 monomers into β-sheet-rich early aggregates was investigated. The change in CD signal at 218 nm over the course of 3,000 s was monitored for 04-treated and untreated Aβ42 peptides.
A monoexponential data fit yielded a time constant of τ = 150 ± 40 s for O4-treated samples, while a time constant of τ = 350 ± 30 s was obtained for untreated samples.
Background: Circular dichroism is widely used to follow secondary structure.

The target in the next assay is T2, Aβ42 oligomers (Homo sapiens, UniProt P05067).
T2 construct: the amyloid-β 1-42 (Aβ42) peptide
T2 sequence (P05067 672-713 limits assumed): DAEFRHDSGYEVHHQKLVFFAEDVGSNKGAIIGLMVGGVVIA
Description: Colorimetric dot blot binding assay on nitrocellulose membrane. The note with it: for Kd: 04 0.4-200 µM, 15 min, read-out: apparent dissociation constant. The protocol: 2.2.4. 04 converts small, unstable Aβ42 oligomers into larger SDS-stable protein aggregates. To examine whether 04 converts small Aβ42 oligomers into larger amyloid fibrils, we first tested whether the compound can bind to different types of preformed aggregate species. Peptide preparations highly enriched in Aβ42 monomers (Ehrnhoefer, 2008), spherical oligomers (Ma, 2006) or large amyloid fibrils (Ehrnhoefer, 2008) were produced and incubated with 04 for 15 minutes at room temperature. Then, samples were spotted onto a nitrocellulose membrane and after washing with buffer (non-denaturing conditions) 04 binding was examined. As 04 is a dye and blue in color its binding to amyloid aggregates can be detected colorimetrically (Fig. 3c).
Binding of 04 to Aβ42 oligomers was quantified colorimetrically (Fig. 5).

Another assay deals with T3, Aβ42 aggregates (Homo sapiens, UniProt P05067).
T3 construct: the amyloid-β 1-42 (Aβ42) peptide
T3 sequence (P05067 672-713 limits assumed): as above
Put plainly: Dot blot assays of Aβ42 aggregates with antibodies 4G8, 6E10 and B10. The note with it: Aβ42 15 µM. In kind it is biochemical. As to the method: 2.2.6. 04-generated amyloid fibrils have altered surface properties. We next examined whether 04 treatment influences the morphology of mature amyloid fibrils. […] of chemical compound and the resulting aggregates were analyzed with dot blot assays using the monoclonal antibodies 6E10 and 4G8, which specifically recognize amino acids 4-9 and 18-22 in Aβ42 peptides, respectively (Kim, 1988).
To confirm the observation that 04 alters surface properties of Aβ42 aggregates, we also examined whether 04-generated Aβ42 aggregates can be detected with the conformation specific antibody B10, which preferentially recognizes mature, β-sheet-rich amyloid fibrils and protofibrils, while monomers and low molecular oligomers are less efficiently detected (Habicht, 2007).

T1 sequence (P05067 672-713 limits assumed): as above

In the case of `O=c1cc2oc3cc(O)c(-c4ccc(O)cc4O)cc3nc-2cc1-c1ccc(O)cc1O` [Compound 04, 2,8-bis-(2,4-dihydroxyphenyl)-7-hydroxy-phenoxazin-3-one], the “morphology of amyloid fibrils (TEM and AFM)” value on Aβ42 [1] (Aβ42 15 µM, 04 75 µM, 4 d non-agitated, 37°C) is listed as “mostly bent amyloid fibrils with a rough, irregular surface”. Further, the “number of oligomeric structures” value at Aβ42 [1] (Aβ42 15 µM, 04 150 µM, after 48 h, p < 1*10^-4) was “reduced”. The “number of long amyloid fibrils” value on Aβ42 [1] (Aβ42 15 µM, 04 150 µM, after 48 h, untreated control 1.3%, p < 1*10^-5) turned out to be 27%. Besides, the “length of amyloid fibrils” value at Aβ42 [1] (Aβ42 15 µM, 04 150 µM, incubation 4 d, untreated: protofibrils ∼30-150 nm) was > 500 nm. Besides, the “spherical Aβ42 oligomers in soluble fractions (TEM)” value on Aβ42 [1] (Aβ42 100 µM, 04 10-fold molar excess, 24 h at 6-8°C in F12 medium) is “only very rarely detected”. Besides, at Aβ42 [2] (04 75 µM, 37°C, monoexponential decay fit, control 350 ± 30 nm), the “time constant τ of β-sheet formation (ellipticity at 218 nm)” value was determined as 150 ± 40 s. For the same molecule, at Aβ42 [2] (04 75 µM, 37°C, monoexponential fit, untreated 350 ± 30 s), the “time constant τ of β-sheet formation (CD signal at 218 nm)” value is recorded as 150 ± 40 s. In addition, the “CD spectra of Aβ42 fibrils” value on Aβ42 [2] (equimolar 04, 37°C) is recorded as “CD spectra characteristic of β-sheet-rich amyloid structures”. For the same molecule, the figures for the Kd at Aβ42 oligomers (Aβ42 oligomers equivalent to monomer concentration 3 µM), at Aβ42 oligomers (Aβ42 oligomers equivalent to monomer concentration 6 µM) and on Aβ42 oligomers (Aβ42 oligomers equivalent to monomer concentration 12 µM) were 50 ± 2 µM, 25 ± 1 µM and 3.5 ± 0.1 µM, respectively. Further, on Aβ42 oligomers (Aβ42 preparations 15 µM, 04 3, 15 and 75 µM, 15 min at room temperature, non-denaturing wash), the “04 staining of Aβ42 monomers, oligomers and fibrils” value was “readily stains oligomeric and fibrillar Aβ42 aggregates, while monomers were less efficiently detected”. At Aβ42 oligomers (cooperative binding model fitted to the oligomer binding data), this molecule yielded a Hill coefficient n of 4. On Aβ42 aggregates (48 h at 37°C, increasing concentrations of 04), the “B10 antibody binding to Aβ42 aggregates” value is listed as “reduced B10 binding ability”. Further, on Aβ42 aggregates (5 d at 37°C with or without 04, no such effect with 6E10), the “recognition of Aβ42 aggregates by 4G8 antibody” value is on record as “less efficiently recognized by the 4G8 antibody”.
